Read-outs that look alike come from different tables or passages of the source.
Tested on: Aβ42
Test: Cellular assay for inhibition of Aβ1-42 production (H4 APP751 SWE clone 8.20)
Assay type: cell-based
Conditions: H4 APP751 SWE clone 8.20 cells, 19 h incubation
Procedure: Cellular Assays for Inhibition of Aβ1-40 and Aβ1-42 Production
H4 cells stably transfected with APP751 containing the Swedish mutation (H4 APP751 SWE clone 8.20, developed at BMS) were maintained in log phase through twice weekly passage at a 1:20 split. […] Following incubation for 19 h in 5% CO2 at 37° C., plates were briefly centrifuged (1000 rpm, 5 min). A 10 μl aliquot from each well was transferred to a second assay plate (Costar 3709) for Aβ40 measurements. Antibody cocktails were freshly prepared by dilution into 40 mM Tris-HCl (pH 7.4) with 0.2% BSA and added to assay plates. For Aβ42 measurements, antibodies specific for the Aβ42 neoepitope (565, developed at BMS; conjugated to the Wallac reagent (Perkin Elmer)) and the N-terminal sequence of Aβ peptide (26D6, developed at SIBIA; conjugated to APC (Perkin Elmer)) were mixed and 20 μl of the mixture was added to each well of the incubated cell plate yielding a final concentration of 0.8 ng/well 565 and 75 ng/well 26D6. For the Aβ40 measurements, antibodies specific for the Aβ40 neoepitope (TSD, developed at BMS; conjugated to the Wallac reagent (Perkin Elmer)) and 26D6 as described above were mixed and 20 μl of the mixture was added to the 10 μl aliquots which had been removed previously from the cell plate yielding a final concentration of 1.6 ng/well TSD and 17.5 ng/well 26D6. Assay plates containing antibodies were sealed with aluminum foil and incubated overnight at 4° C. Signal was determined using a Viewlux counter (Perkin Elmer) and IC50 values determined using curve fitting in CurveMaster (Excel Fit based).

[1] = read-out: Activity Rating (Aβ42 cellular IC50), class symbol
[2] = 19 h, read-out: Activity Rating (Aβ42 cellular IC50), class symbol
[3] = 19 h, unit inferred, read-out: Activity Rating (Aβ42 cellular IC50), numeric value

| SMILES | IC50 [1] | IC50 [2] | also measured |
| --- | --- | --- | --- |
| CN1CC=CCOc2cc(ccc2-n2cnc(Cl)c2)Nc2nc3c(c1n2)CCC3c1ccccc1 (stereo not drawn) [Example 3A, (11Z)-7-(4-chloro-1H-imidazol-1-yl)-14-methyl-18-phenyl-10,13,14,16,17,18-hexahydro-15,2-(azeno)-8,4-(metheno)cyclopenta[h][1,6,10,12]oxatriazacycloheptadecine] | < 10 nM |  |  |
| CN1CC=CCOc2cc(ccc2-n2cnc(Cl)c2)Nc2nc3c(c1n2)CCC3c1ccccc1 (stereo not drawn) [Example 3B, (11Z)-7-(4-chloro-1H-imidazol-1-yl)-14-methyl-18-phenyl-10,13,14,16,17,18-hexahydro-15,2-(azeno)-8,4-(metheno)cyclopenta[h][1,6,10,12]oxatriazacycloheptadecine] | 10 to 100 nM |  |  |
| CN1CC=CCOc2cc(ccc2-n2cnc(Cl)c2)Nc2nc3c(c1n2)CCC3c1ccccc1 (stereo not drawn) [Example 4A, (11E)-7-(4-chloro-1H-imidazol-1-yl)-14-methyl-18-phenyl-10,13,14,16,17,18-hexahydro-15,2-(azeno)-8,4-(metheno)cyclopenta[h][1,6,10,12]oxatriazacycloheptadecine] | < 10 nM |  |  |
| CN1CC=CCOc2cc(ccc2-n2cnc(Cl)c2)Nc2nc3c(c1n2)CCC3c1ccccc1 (stereo not drawn) [Example 4B, (11E)-7-(4-chloro-1H-imidazol-1-yl)-14-methyl-18-phenyl-10,13,14,16,17,18-hexahydro-15,2-(azeno)-8,4-(metheno)cyclopenta[h][1,6,10,12]oxatriazacycloheptadecine] | 10 to 100 nM |  |  |
| Clc1cn(-c2ccc3cc2OC/C=C/CCNc2nc(nc4c2CCC4c2ccccc2)N3)cn1 (stereo not drawn) [Example 5A, (11E)-7-(4-chloro-1H-imidazol-1-yl)-19-phenyl-3,10,13,14,15,17,18,19-octahydro-2,16-(azeno)-8,4-(metheno)cyclopenta[j][1,7,9,13]oxatriazacyclooctadecine] | < 10 nM |  |  |
| Clc1cn(-c2ccc3cc2OC/C=C/CCNc2nc(nc4c2CCC4c2ccccc2)N3)cn1 (stereo not drawn) [Example 5B, (11E)-7-(4-chloro-1H-imidazol-1-yl)-19-phenyl-3,10,13,14,15,17,18,19-octahydro-2,16-(azeno)-8,4-(metheno)cyclopenta[j][1,7,9,13]oxatriazacyclooctadecine] |  | 10 to 100 nM |  |
| CC1C/C=C\COc2cc(ccc2-n2cnc(Cl)c2)Nc2nc(c3c(n2)C(c2ccccc2)CC3)N1 (stereo not drawn) [Example 6A, (11Z)-7-(4-chloro-1H-imidazol-1-yl)-14-methyl-19-phenyl-3,10,13,14,15,17,18,19-octahydro-2,16-(azeno)-8,4-(metheno)cyclopenta[j][1,7,9,13]oxatriazacyclooctadecine] |  |  | IC50 [3]: 3.6 nM |
| CC1C/C=C\COc2cc(ccc2-n2cnc(Cl)c2)Nc2nc(c3c(n2)C(c2ccccc2)CC3)N1 (stereo not drawn) [Example 6B, (11Z)-7-(4-chloro-1H-imidazol-1-yl)-14-methyl-19-phenyl-3,10,13,14,15,17,18,19-octahydro-2,16-(azeno)-8,4-(metheno)cyclopenta[j][1,7,9,13]oxatriazacyclooctadecine] |  | 10 to 100 nM |  |
| CC1C/C=C/COc2cc(ccc2-n2cnc(Cl)c2)Nc2nc(c3c(n2)C(c2ccccc2)CC3)N1 (stereo not drawn) [Example 7A, (11E)-7-(4-chloro-1H-imidazol-1-yl)-14-methyl-19-phenyl-3,10,13,14,15,17,18,19-octahydro-2,16-(azeno)-8,4-(metheno)cyclopenta[j][1,7,9,13]oxatriazacyclooctadecine] |  |  | IC50 [3]: 8.8 nM |
| CC1C/C=C/COc2cc(ccc2-n2cnc(Cl)c2)Nc2nc(c3c(n2)C(c2ccccc2)CC3)N1 (stereo not drawn) [Example 7B, (11E)-7-(4-chloro-1H-imidazol-1-yl)-14-methyl-19-phenyl-3,10,13,14,15,17,18,19-octahydro-2,16-(azeno)-8,4-(metheno)cyclopenta[j][1,7,9,13]oxatriazacyclooctadecine] |  | 100 to 1000 nM |  |
| Clc1cn(-c2ccc3cc2OCCOCCNc2nc(nc4c2CCC4c2ccccc2)N3)cn1 (stereo not drawn) [Example 8A, 7-(4-chloro-1H-imidazol-1-yl)-19-phenyl-10,11,13,14,15,17,18,19-octahydro-16,2-(azeno)-8,4-(metheno)cyclopenta[i][1,4,7,11,13]dioxatriazacyclooctadecine] |  | < 10 nM |  |
| Clc1cn(-c2ccc3cc2OCCCNc2nc(nc4c2CCC4c2ccccc2)N3)cn1 (stereo not drawn) [Example 9A, 7-(4-chloro-1H-imidazol-1-yl)-17-phenyl-11,12,13,15,16,17-hexahydro-10H-14,2-(azeno)-8,4-(metheno)cyclopenta[g][1,5,9,11]oxatriazacyclohexadecine] |  | < 10 nM |  |
| Clc1cn(-c2ccc3cc2OCCCNc2nc(nc4c2CCC4c2ccccc2)N3)cn1 (stereo not drawn) [Example 9B, 7-(4-chloro-1H-imidazol-1-yl)-17-phenyl-11,12,13,15,16,17-hexahydro-10H-14,2-(azeno)-8,4-(metheno)cyclopenta[g][1,5,9,11]oxatriazacyclohexadecine] |  |  | IC50 [3]: 17 nM |
| CN1CCCOc2cc(ccc2-n2cnc(Cl)c2)Nc2nc3c(c1n2)CCC3c1ccccc1 (stereo not drawn) [Example 10A, 7-(4-chloro-1H-imidazol-1-yl)-13-methyl-17-phenyl-11,12,13,15,16,17-hexahydro-10H-14,2-(azeno)-8,4-(metheno)cyclopenta[g][1,5,9,11]oxatriazacyclohexadecine] |  | 10 to 100 nM |  |
| Clc1cn(-c2ccc3cc2OCCCCCNc2nc(nc4c2CCC4c2ccccc2)N3)cn1 (stereo not drawn) [Example 11A, 7-(4-chloro-1H-imidazol-1-yl)-19-phenyl-3,10,11,12,13,14,15,17,18,19-decahydro-2,16-(azeno)-8,4-(metheno)cyclopenta[f][1,7,9,13]oxatriazacyclooctadecine] |  |  | IC50 [3]: 3.8 nM |
| Clc1cn(-c2ccc3cc2OCCCCCNc2nc(nc4c2CCC4c2ccccc2)N3)cn1 (stereo not drawn) [Example 11B, 7-(4-chloro-1H-imidazol-1-yl)-19-phenyl-3,10,11,12,13,14,15,17,18,19-decahydro-2,16-(azeno)-8,4-(metheno)cyclopenta[f][1,7,9,13]oxatriazacyclooctadecine] |  | 10 to 100 nM |  |
| Clc1cn(-c2ccc3cc2OCCCCNc2nc(nc4c2CCC4c2ccccc2)N3)cn1 (stereo not drawn) [Example 12A, 7-(4-chloro-1H-imidazol-1-yl)-18-phenyl-10,11,12,13,14,16,17,18-octahydro-15,2-(azeno)-8,4-(metheno)cyclopenta[h][1,6,10,12]oxatriazacycloheptadecine] |  | < 10 nM |  |
| Clc1cn(-c2ccc3cc2OCCCCNc2nc(nc4c2CCC4c2ccccc2)N3)cn1 (stereo not drawn) [Example 12B, 7-(4-chloro-1H-imidazol-1-yl)-18-phenyl-10,11,12,13,14,16,17,18-octahydro-15,2-(azeno)-8,4-(metheno)cyclopenta[h][1,6,10,12]oxatriazacycloheptadecine] | 10 to 100 nM |  |  |
| CN1CCCCOc2cc(ccc2-n2cnc(Cl)c2)Nc2nc3c(c1n2)CCC3c1ccccc1 (stereo not drawn) [Example 13A, 7-(4-chloro-1H-imidazol-1-yl)-14-methyl-18-phenyl-10,11,12,13,14,16,17,18-octahydro-15,2-(azeno)-8,4-(metheno)cyclopenta[h][1,6,10,12]oxatriazacycloheptadecine] |  | < 10 nM |  |
| CN1CCCCOc2cc(ccc2-n2cnc(Cl)c2)Nc2nc3c(c1n2)CCC3c1ccccc1 (stereo not drawn) [Example 13B, 7-(4-chloro-1H-imidazol-1-yl)-14-methyl-18-phenyl-10,11,12,13,14,16,17,18-octahydro-15,2-(azeno)-8,4-(metheno)cyclopenta[h][1,6,10,12]oxatriazacycloheptadecine] |  |  | IC50 [3]: 26 nM |
| Fc1ccc(C2CCc3c4nc(nc32)Nc2ccc(-n3cnc(Cl)c3)c(c2)OCC=CCN4)c(F)c1 (stereo not drawn) [Example 14A, (11Z)-7-(4-chloro-1H-imidazol-1-yl)-18-(2,4-difluorophenyl)-10,13,14,16,17,18-hexahydro-15,2-(azeno)-8,4-(metheno)cyclopenta[h][1,6,10,12]oxatriazacycloheptadecine] | < 10 nM |  |  |
| Fc1ccc(C2CCc3c4nc(nc32)Nc2ccc(-n3cnc(Cl)c3)c(c2)OCC=CCN4)c(F)c1 (stereo not drawn) [Example 14B, (11Z)-7-(4-chloro-1H-imidazol-1-yl)-18-(2,4-difluorophenyl)-10,13,14,16,17,18-hexahydro-15,2-(azeno)-8,4-(metheno)cyclopenta[h][1,6,10,12]oxatriazacycloheptadecine] | 10 to 100 nM |  |  |
| Fc1ccc(C2CCc3c4nc(nc32)Nc2ccc(-n3cnc(Cl)c3)c(c2)OCC=CCN4)c(F)c1 (stereo not drawn) [Example 15A, (11E)-7-(4-chloro-1H-imidazol-1-yl)-18-(2,4-difluorophenyl)-10,13,14,16,17,18-hexahydro-15,2-(azeno)-8,4-(metheno)cyclopenta[h][1,6,10,12]oxatriazacycloheptadecine] | < 10 nM |  |  |
| Fc1ccc(C2CCc3c4nc(nc32)Nc2ccc(-n3cnc(Cl)c3)c(c2)OCC=CCN4)c(F)c1 (stereo not drawn) [Example 15B, (11E)-7-(4-chloro-1H-imidazol-1-yl)-18-(2,4-difluorophenyl)-10,13,14,16,17,18-hexahydro-15,2-(azeno)-8,4-(metheno)cyclopenta[h][1,6,10,12]oxatriazacycloheptadecine] |  |  | IC50 (unit inferred, read-out: Activity Rating (Aβ42 cellular IC50), numeric value): 23 nM |

From US8637523B2, “Compounds for the reduction of beta-amyloid production” (Bristol-Myers Squibb Company, priority 2010, dated 2014)
